This note sets out measurements from patent publication US8575145B2, “Triazolopyridine compounds as PIM kinase inhibitors” (Array BioPharma Inc., priority 2008, dated 2013).

One assay addresses PIM-1 (Homo sapiens (Human), UniProt P11309). The experiment in a line: PIM-1 Enzyme Assay. The class given is biochemical. A digest of the protocol: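 Radiometric kinase assay in 20 mM K+MOPS pH 7.4, 10 mM MgCl2, 0.005% Tween-20, 1 mM DTT, 2% DMSO final; 60 min at 22° C, stopped with H3PO4, product captured on P81 filter and counted by scintillation. IC50 from 4-parameter logistic fit of percent of control.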

Another assay concerns the target recombinant rat PIM-3 (Rattus norvegicus (Rat), UniProt O70444). The experiment in a line: PIM-3 Enzyme Assay. The settings on record: 30 μM ATP, 0.5 nM PIM-3.
The target of assay [1] is GST-tagged recombinant full-length human PIM-2 (Homo sapiens (Human), UniProt Q9P1W9). The experiment in a line: PIM-2 Enzyme Assay.
Procedure: The amount of radiolabeled product is then measured by liquid scintillation counting. The final buffer conditions were as follows: 20 mM K^+MOPS, pH 7.4, 10 mM MgCl2, 0.005% Tween-20, 1 mM DTT. […] Incubations were carried out for 60 min at 22° C. and quenched with 75 μL of 200 mM H3PO4, filtered through a Whatman P81 plate and washed (1×200 μL and 5×100 μL ) with 200 mM H3PO4. Liquid scintillation cocktail (50 μL ) was then added per well, and the plate was counted for 30 s/well using a TopCount NXT.
One-μL aliquots of these were then transferred to the assay mixtures above to give a final concentration of DMSO of 2%. […] For each plate, percent of control (POC) values were calculated for each well. IC50's were estimated from the POC's using a standard 4-parameter logistic model. The IC50 is defined as the concentration of inhibitor at which the POC equals 50 for the fitted curve.
The mark [2] stands for this setting: read-out: PIM-2 IC50, 4 μM ATP, […] PIM-2.
Where [3] appears, read: PIM-2 IC50 (nM), 4 μM ATP, […] PIM-2.

Where a name gives a salt, the structure may show the parent alone. Read-outs that look alike come from different tables or passages of the source.

Sequence of GST-tagged recombinant full-length human PIM-2 (Q9P1W9 whole entry): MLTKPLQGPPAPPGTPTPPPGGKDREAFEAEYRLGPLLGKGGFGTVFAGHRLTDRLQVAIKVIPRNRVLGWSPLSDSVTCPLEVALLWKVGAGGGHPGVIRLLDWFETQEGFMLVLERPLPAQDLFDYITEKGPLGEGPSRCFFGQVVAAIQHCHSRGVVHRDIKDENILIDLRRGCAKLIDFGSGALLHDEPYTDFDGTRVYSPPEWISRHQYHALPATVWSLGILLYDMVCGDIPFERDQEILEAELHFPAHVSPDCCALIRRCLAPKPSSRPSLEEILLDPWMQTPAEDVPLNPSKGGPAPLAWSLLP
Sequence of PIM-1 (P11309 whole entry, species assumed): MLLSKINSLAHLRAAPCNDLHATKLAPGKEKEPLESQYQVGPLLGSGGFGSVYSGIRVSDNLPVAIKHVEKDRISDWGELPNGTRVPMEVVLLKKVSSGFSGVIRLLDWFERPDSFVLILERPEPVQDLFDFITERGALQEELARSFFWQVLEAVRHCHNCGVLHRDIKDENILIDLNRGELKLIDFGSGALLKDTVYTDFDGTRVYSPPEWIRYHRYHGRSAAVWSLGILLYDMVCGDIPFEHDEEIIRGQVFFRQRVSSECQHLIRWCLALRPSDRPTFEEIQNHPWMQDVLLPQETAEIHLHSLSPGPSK

Turning to `Fc1ccc2nnc(-c3ccc4cccc(O[C@H]5CCNC[C@H]5F)c4n3)n2c1` (relative stereo) [Example 59, 2-(6-fluoro-[1,2,4]triazolo[4,3-a]pyridin-3-yl)-8-((cis)-3-fluoropiperidin-4-yloxy)quinoline], the IC50 against PIM-1 (35 μM ATP, 0.25 nM PIM-1) came out at 55 nM; on recombinant rat PIM-3 (read-out: PIM-3 IC50), 98 nM; in assay [1] (setting [2]), 2870 nM.
For `c1cc(OCC2CCNCC2)c2nc(-c3nnc4ccccn34)ccc2c1` [Example 14, 2-([1,2,4]Triazolo[4,3-a]pyridin-3-yl)-8-(piperidin-4-ylmethoxy)quinoline] the same measures were 2 nM, 11 nM and 562 nM.
The corresponding values for `Cc1ccn2c(-c3ccc4cccc(OC5CCNCCC5F)c4n3)nnc2c1` (single isomer, unassigned) [Example 122, 8-((cis-4,5)-5-fluoroazepan-4-yloxy)-2-(7-methyl-[1,2,4]triazolo[4,3-a]pyridin-3-yl)quinoline] are 17.5 nM, 23.5 nM and 1000 nM.
The corresponding values for `CC(C)(CO)COc1cccc2ccc(-c3nnc4cc(CN)ccn34)nc12` [Example 19, 3-(2-(7-(aminomethyl)-[1,2,4]triazolo[4,3-a]pyridin-3-yl)quinolin-8-yloxy)-2,2-dimethylpropan-1-ol] are 0.7 nM, 2 nM and 17 nM.
Take `OCC(O)COc1cccc2ccc(-c3nnc4ccccn34)nc12` (stereo not drawn) [Example 62, 3-(2-([1,2,4]triazolo[4,3-a]pyridin-3-yl)quinolin-8-yloxy)propane-1,2-diol]: the IC50 at PIM-1 (35 μM ATP, 0.25 nM PIM-1) was found to be 34 nM; at recombinant rat PIM-3 (read-out: PIM-3 IC50), 262 nM; in assay [1] (setting [2]), 1720 nM.
As to `c1cc(OCCC2CCCCN2)c2nc(-c3nnc4ccccn34)ccc2c1` (stereo not drawn) [Example 15, 2-([1,2,4]Triazolo[4,3-a]pyridin-3-yl)-8-(2-(piperidin-2-yl)ethoxy)quinoline], the IC50 at PIM-1 (35 μM ATP, 0.25 nM PIM-1) was determined as 16 nM; on recombinant rat PIM-3 (read-out: PIM-3 IC50), 102 nM; in assay [1] (setting [2]), 4220 nM.
For `CC(C)(C)OC(=O)NCCCNc1cccc2ccc(-c3nnc4ccccn34)nc12` [Example 6, tert-Butyl 3-(2-([1,2,4]triazolo[4,3-a]pyridin-3-yl)quinolin-8-ylamino)propylcarbamate] the same measures were 32 nM, 155 nM and 10000 nM.
Regarding `CC(C)COc1cccc2ccc(-c3nnc4cc(CN)ccn34)nc12` [Example 20, (3-(8-isobutoxyquinolin-2-yl)-[1,2,4]triazolo[4,3-a]pyridin-7-yl)methanamine], the IC50 is 2 nM on PIM-1 (35 μM ATP, 0.25 nM PIM-1); 5 nM on recombinant rat PIM-3 (read-out: PIM-3 IC50); 51 nM in assay [1] (setting [2]).
For `CCC1(COc2cccc3ccc(-c4nnc5ccccn45)nc23)CCNCC1` [Example 68, 2-([1,2,4]triazolo[4,3-a]pyridin-3-yl)-8-((4-ethylpiperidin-4-yl)methoxy)quinoline dihydrochloride] the same measures were 1.3 nM, 10 nM and 126 nM.
The corresponding values for `c1cc(OC2CC3CCC(C2)N3)c2nc(-c3nnc4ccccn34)ccc2c1` (stereo not drawn) [Example 29, 8-(8-azabicyclo[3.2.1]octan-3-yloxy)-2-([1,2,4]triazolo[4,3-a]pyridin-3-yl)quinoline] are 5 nM, 30 nM and 585 nM.
The corresponding values for `c1cc(N[C@@H]2CCNC2)c2nc(-c3nnc4ccccn34)ccc2c1` [Example 5, (R)-2-([1,2,4]Triazolo[4,3-a]pyridin-3-yl)-N-(pyrrolidin-3-yl)quinolin-8-amine] are 5 nM, 20 nM and 2020 nM.
Take `OC[C@@H]1C[C@@H](Oc2cccc3ccc(-c4nnc5ccccn45)nc23)CCN1` [Example 56, ((2S,4S)-4-(2-([1,2,4]triazolo[4,3-a]pyridin-3-yl)quinolin-8-yloxy)piperidin-2-yl)methanol dihydrochloride]: the results for the IC50 (on PIM-1; on recombinant rat PIM-3 (read-out: PIM-3 IC50); in assay [1] (setting [2])) were 9 nM, 24 nM and 427 nM, respectively.
In the case of `CC(C)(CN)COc1cccc2ccc(-c3nnc4ccc(C5CC5)cn34)nc12` [Example 64, 3-(2-(6-cyclopropyl-[1,2,4]triazolo[4,3-a]pyridin-3-yl)quinolin-8-yloxy)-2,2-dimethylpropan-1-amine dihydrochloride], the IC50 at PIM-1 stood at 0.64 nM; at recombinant rat PIM-3 (read-out: PIM-3 IC50), 5 nM; in assay [1] (read-out: PIM-2 IC50), 323 nM.
On to `Fc1cc(OC2CCNCCC2F)c2nc(-c3nnc4ccccn34)ccc2c1` (single isomer, unassigned) [Example 90, cis-2-([1,2,4]triazolo[4,3-a]pyridin-3-yl)-6-fluoro-8-5-fluoroazepan-4-yloxy)quinoline], for which the IC50 amounted to 0.4 nM against PIM-1 (35 μM ATP, 0.25 nM PIM-1); 2 nM on recombinant rat PIM-3 (read-out: PIM-3 IC50); 131 nM in assay [1] (setting [2]).
The corresponding values for `Cc1ccn2c(-c3ccc4cccc(OC5CCNCCC5F)c4n3)nnc2c1` (single isomer, unassigned) [Example 92, cis-8-5-fluoroazepan-4-yloxy)-2-(7-methyl-[1,2,4]triazolo[4,3-a]pyridin-3-yl)quinoline] are 1 nM, 3 nM and 244 nM.
The corresponding values for `c1cc(O[C@H]2CCNC2)c2nc(-c3nnc4ccccn34)ccc2c1` [Example 12, (S)-2-([1,2,4]Triazolo[4,3-a]pyridin-3-yl)-8-(pyrrolidin-3-yloxy)quinoline] are 30 nM, 77 nM and 4910 nM.
On to `FC1CCNCCC1Oc1cccc2ccc(-c3nnc4ccccn34)nc12` (single isomer, unassigned) [Example 48, 2-([1,2,4]triazolo[4,3-a]pyridin-3-yl)-8-(5-fluoroazepan-4-yloxy)quinoline dihydrochloride], for which the IC50 is 0.7 nM against PIM-1 (35 μM ATP, 0.25 nM PIM-1); 4 nM at recombinant rat PIM-3 (PIM-3 IC50 (nM)); 147 nM in assay [1] (setting [3]).
With `Cc1ccc2nnc(-c3ccc4cccc(OC5CCNCCC5F)c4n3)n2c1` (single isomer, unassigned) [Example 100, 8-((trans)-5-fluoroazepan-4-yloxy)-2-(6-methyl-[1,2,4]triazolo[4,3-a]pyridin-3-yl)quinoline], the IC50 was determined as 1.5 nM on PIM-1 (35 μM ATP, 0.25 nM PIM-1); 2 nM at recombinant rat PIM-3 (read-out: PIM-3 IC50); 352 nM in assay [1] (setting [2]).
With `FC1CCNCCC1Oc1cccc2ccc(-c3nnc4ccccn34)nc12` (single isomer, unassigned) [Example 50, 2-([1,2,4]triazolo[4,3-a]pyridin-3-yl)-8-(5-fluoroazepan-4-yloxy)quinoline dihydrochloride], the IC50 against PIM-1 (35 μM ATP, 0.25 nM PIM-1) was found to be 12 nM; on recombinant rat PIM-3 (PIM-3 IC50 (nM)), 8 nM; in assay [1] (setting [3]), 290 nM.
With `CC[C@@H](CN)C(C)Oc1cccc2ccc(-c3nnc4ccccn34)nc12` (stereo partly drawn) [Example 32, (2S)-3-(2-([1,2,4]triazolo[4,3-a]pyridin-3-yl)quinolin-8-yloxy)-2-ethylbutan-1-amine], the IC50 came out at 4 nM against PIM-1 (35 μM ATP, 0.25 nM PIM-1); 17 nM at recombinant rat PIM-3 (read-out: PIM-3 IC50); 399 nM in assay [1] (setting [2]).
`c1cc(OC2CCCNCC2)c2nc(-c3nnc4ccccn34)ccc2c1` (stereo not drawn) [Example 52, 2-([1,2,4]triazolo[4,3-a]pyridin-3-yl)-8-(azepan-4-yloxy)quinoline dihydrochloride]: the IC50 against PIM-1 (35 μM ATP, 0.25 nM PIM-1, dihydrochloride) was 2 nM; at recombinant rat PIM-3 (read-out: PIM-3 IC50, dihydrochloride) it was 4 nM; in assay [1] (read-out: PIM-2 IC50, 4 μM ATP, […] PIM-2, dihydrochloride), 110 nM.

The IC50 is the point on the concentration scale where inhibition reaches its midpoint.
